The subject of series [1] is SHMT. The following applies: background statement; cited from earlier work.
For series [2], the system named is SHMT1. As to the kind of experiment: SHMT1 activity immunoprecipitated from sorbitol-stimulated SHMT1-HEK293 cells. It counts as cell-based, human. The following applies: serum-starved SHMT1-HEK293 cells, 0.3 M sorbitol, 15 or 30 min; FIG. 3. As to the method:
Transfection and retroviral infection: SHMT1 (human homolog of yeast Shm2) with a C-terminal myc tag was cloned into pBabe puro plasmid and was transiently transfected into Bosc 23 cells using Effectene (Qiagen) as manufacturer's protocol. The harvested retroviruses was added to 5×10^5 HEK-293 cells for infection. After 48 hours the infected cells were selected in the presence of 2.5 µg/mL of puromycin. SHMT1-HEK293 cells were cultured in DMEM with 10% Bovine Calf Serum (BCS) and were serum-starved for 24 hr in DMEM with 0.5% BCS.
Transient transfection and SHMT1 assay: MKK6b was cloned into pcDNA6Hismyc B vector (Invitrogen) and MKK6b-EE was further generated using Quick change protocol (Stratagene). Transient transfection of MKK6b-EE into SHMT1-HEK 293 cells was carried using Lipofectamine 2000 (Invitrogen) according to the manufacturer's protocol. […] SHMT1 or phosphorylated form of p38α was detected by immunobloting with either c-myc antibody (Santa Cruz) or phospho-p38 antibody (Cell Signal) using West pico supersignal kit (Pierce).
Finally, to investigate whether SHMT1 was also an in vivo target of p38 MAP kinase, myc-tagged SHMT1 expressing HEK 293 stable cells were generated. […] SHMT1 was immunoprecipitated at different time points after stimulation and its enzymatic activity was measured as described above. […]

Series [3] concerns the target T1, SHMT1 (Homo sapiens, UniProt P34896).
T1 construct: expressed in transfected cells; host or cells: HEK-293 cells, retroviral infection with pBabe puro and puromycin selection (SHMT1-HEK293)
T1 sequence (P34896 1-483): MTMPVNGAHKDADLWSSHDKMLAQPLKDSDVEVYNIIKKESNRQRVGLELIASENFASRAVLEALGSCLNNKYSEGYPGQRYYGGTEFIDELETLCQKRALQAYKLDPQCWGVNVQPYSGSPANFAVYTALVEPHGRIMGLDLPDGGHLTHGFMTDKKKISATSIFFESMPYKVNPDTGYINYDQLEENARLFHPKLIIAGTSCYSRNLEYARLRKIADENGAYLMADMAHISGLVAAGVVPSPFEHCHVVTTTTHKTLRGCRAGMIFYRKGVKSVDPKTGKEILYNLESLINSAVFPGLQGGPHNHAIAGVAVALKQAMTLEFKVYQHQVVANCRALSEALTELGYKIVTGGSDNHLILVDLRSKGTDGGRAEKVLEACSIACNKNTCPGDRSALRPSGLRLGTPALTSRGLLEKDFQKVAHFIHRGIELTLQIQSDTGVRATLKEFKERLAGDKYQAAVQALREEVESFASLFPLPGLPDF
In words: SHMT1 enzymatic assay after phosphorylation by p38. It counts as biochemical. The following applies: stated as in vitro; FIG. 4. As to the method: (§1) Enzymatic assay for serine hydroxymethyltransferase 2 (Shm2): GST-Shm2 was purified from a yeast strain as described above and its enzymatic activity was measured as described earlier (Krishna Rao et al., Biochem J 343 Pt 1, 257-63, 1999) with minor modifications. To measure the effect of either Hog1-as1 or p38 kinases, Shm2 enzyme was pre-incubated with each kinase in presence of either 1 mM PE-ATP (for Hog1-as1) or 1 mM ATP (for p38) for 30 min at RT before adding to the reaction mixture.
Transient transfection and SHMT1 assay: MKK6b was cloned into pcDNA6Hismyc B vector (Invitrogen) and MKK6b-EE was further generated using Quick change protocol (Stratagene). Transient transfection of MKK6b-EE into SHMT1-HEK 293 cells was carried using Lipofectamine 2000 (Invitrogen) according to the manufacturer's protocol. Immunoprecipitation procedure for SHMT1 from transfected cells was described previously (Shah and Shokat, Chem Biol 9, 35-47, 2002). SHMT1 enzymatic assay was carried out exactly as Shm2 assay as described above. SHMT1 or phosphorylated form of p38α was detected by immunobloting with either c-myc antibody (Santa Cruz) or phospho-p38 antibody (Cell Signal) using West pico supersignal kit (Pierce).

In series [4] the target is T2, Shm2 (Saccharomyces cerevisiae, UniProt P37291).
T2 construct: made in house; host or cells: Saccharomyces cerevisiae
T2 sequence (P37291 1-469): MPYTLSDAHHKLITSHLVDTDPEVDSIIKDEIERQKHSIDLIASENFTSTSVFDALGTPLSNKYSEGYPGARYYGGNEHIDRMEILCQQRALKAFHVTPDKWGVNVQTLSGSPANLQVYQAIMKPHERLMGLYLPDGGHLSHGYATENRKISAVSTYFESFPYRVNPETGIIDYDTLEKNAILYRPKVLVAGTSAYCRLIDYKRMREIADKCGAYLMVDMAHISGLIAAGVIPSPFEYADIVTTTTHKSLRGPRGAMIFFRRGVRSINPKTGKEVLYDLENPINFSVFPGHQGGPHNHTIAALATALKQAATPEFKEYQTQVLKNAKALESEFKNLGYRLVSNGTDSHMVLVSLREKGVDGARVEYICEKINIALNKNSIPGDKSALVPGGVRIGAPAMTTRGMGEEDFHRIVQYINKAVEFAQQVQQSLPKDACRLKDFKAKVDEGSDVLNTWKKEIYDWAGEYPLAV
As to the kind of experiment: Enzymatic assay for serine hydroxymethyltransferase 2 (Shm2) after pre-incubation with kinase. It counts as biochemical. As to conditions: in vitro; pre-incubation with p38α and 1 mM ATP, 30 min RT; FIG. 2D. As to the method:
as §1
To determine Shm2 activity, we measured the transfer of C^14-labeled one-carbon unit as described in the Krishna Rao et al., Biochem J 343 Pt 1, 257-63, 1999. In order to estimate the effect of phosphorylation, Shm2 was pre-incubated with or without Hog 1 kinase, prior to the C^14 transfer reaction.

Series [5] has as its system wt strain. As to the kind of experiment: Genome-wide expression analysis, wt strain under salt. It counts as cell-based, Saccharomyces cerevisiae. As to conditions: 1-NM-PP1 2 μM, 0.9 M NaCl. As to the method:
(§2) Genome-wide expression analysis: Total RNA preparation from hog1-27 strain was performed as described previously (Holstege et al., Cell 95, 717-28, 1998). To monitor the changes in expression caused by specific inhibition of Hog1 kinase, cultures of either wt or hog1-27 were incubated with 1-NM-PP1 (2 μM) for 30 minutes before harvesting (for control, 0.002% DMSO was added). To monitor the effect of osmotic stress, sodium chloride was added into either inhibitor-treated or DMSO-treated cultures to a final concentration of 0.9 M.
(§3) The preparation of probe and the procedure for microassay experiments was performed as described in the literature. The output files from the scanner were uploaded into the GNF chip informatics server and expression profiles were analyzed using a built-in analysis program, ANOVA. Search for the common transcriptional regulatory elements was done using the promoter database of Saccharomyces cerevisiae at the Cold Spring Harbor Laboratory.
For DNA micro-array experiments, total RNAs were isolated from both the wt strain and the hog1-as1 mutant strain (hog1-27) treated with DMSO (WT+DMSO, MUT+DMSO), salt and DMSO (WTS+DMSO, MUTS+DMSO), salt and inhibitor (WTS+1-NM-PP1, MUTS+1-NM-PP1). […]

For series [6], the system named is hog1-as1 mutant strain (hog1-27). In words: Genome-wide expression analysis, hog1-as1 mutant strain under salt. It counts as cell-based, Saccharomyces cerevisiae. As to conditions: MUTS+1-NM-PP1 versus MUTS+DMSO; 1-NM-PP1 2 μM, 0.9 M NaCl. As to the method: as §2, §3
For DNA micro-array experiments, total RNAs were isolated from both the wt strain and the hog1-as1 mutant strain (hog1-27) treated with DMSO (WT+DMSO, MUT+DMSO), salt and DMSO (WTS+DMSO, MUTS+DMSO), salt and inhibitor (WTS+1-NM-PP1, MUTS+1-NM-PP1). For each experiment, RNA samples were prepared in duplicates, followed by the preparation of the corresponding biotinylated cRNA probes and hybridized to Yeast Genome S98 arrays (Affymetrix). Two expression profiles were first examined between duplicate samples to ensure reproducibility and the whole procedure was repeated three times. […] To analyze the number of genes affected by salt addition, expression profiles of MUTS+DMSO versus MUT+DMSO were compared by ANOVA (Brazma and Vilo, 2000). The expressions of 874 genes in the mutant strain were changed more than 2.5 fold by the addition of salt. Thus, the analysis covered almost the full complement of genes known to be affected by osmotic stress.
The effect of inhibition in the hog1-as1 mutant strain was examined by comparing the expression profiles of MUTS+1-NM-PP1 versus MUTS+DMSO. […]

For the molecule `CN(Cc1cnc2nc(N)nc(N)c2n1)c1ccc(C(=O)N[C@@H](CCC(=O)O)C(=O)O)cc1` [methotrexate], the “inhibition of SHMT activity” value in series [1] is given as “failed to inhibit SHMT activity significantly”.

Regarding `OC[C@@H](O)[C@@H](O)[C@H](O)[C@@H](O)CO` [sorbitol], the “SHMT1 enzymatic activity after sorbitol treatment” value in series [2] is recorded as “decreased activity of SHMT1”.

For the molecule “p38 MAP kinase: Active p38α MAP kinase purchased from Upstate Inc.; human homolog of Hog1”, in series [3], the “modulation of SHMT1 enzymatic activity upon phosphorylation” value is 30%. In series [4], the “modulation of Shm2 enzymatic activity upon phosphorylation” value is on record as about 50%.

On to `CC(C)(C)n1nc(Cc2cccc3ccccc23)c2c(N)ncnc21` [1-NM-PP1], for which the “number of genes affected by addition of inhibitor” value in series [5] was 11 genes. In addition, in series [6], the “number of genes affected more than 2-fold by addition of inhibitor” value is reported as 96 genes, the “number of genes downregulated by addition of inhibitor” value turned out to be 81 genes and the “number of genes upregulated by addition of inhibitor” value is 15 genes.

These data come from patent US7252944B2, “Methods and compositions for modulating cell proliferation” (IRM LLC, priority 2003, dated 2007).
